Assays:
MOLT-4 = assay: Cytotoxicity against human MOLT4 cells by SRB assay; type: functional
OVCAR-8 = assay: Cytotoxicity against human OVCAR8 cells by SRB assay; type: functional
SR = assay: Cytotoxicity against human SR cells by SRB assay; type: functional
A549 = assay: Cytotoxicity against human A549 cells by SRB assay; type: functional
NCI-H226 = assay: Cytotoxicity against human NCI-H226 cells by SRB assay; type: functional
BT-549 = assay: Cytotoxicity against human BT549 cells by SRB assay; type: functional
SK-MEL-2 = assay: Cytotoxicity against human SK-MEL-2 cells by SRB assay; type: functional
SK-MEL-28 = assay: Cytotoxicity against human SK-MEL-28 cells by SRB assay; type: functional
[1] = Cytotoxicity against human 786-O cells by SRB assay; type: functional; settings: 786-0
MDA-MB-435 = assay: Cytotoxicity against human MDA-MB-435 cells by SRB assay; type: functional
A498 = assay: Cytotoxicity against human A498 cells by SRB assay; type: functional
SN12C = assay: Cytotoxicity against human SN12C cells by SRB assay; type: functional
Leukemia cell = assay: Cytotoxicity against human Leukemia cells by SRB assay; type: functional
HCC 2998 = assay: Cytotoxicity against human HCC2998 cells by SRB assay; type: functional
RPMI-8226 = assay: Cytotoxicity against human RPMI8226 cells by SRB assay; type: functional
IGROV-1 = assay: Cytotoxicity against human IGROV1 cells by SRB assay; type: functional
CAKI-1 = assay: Cytotoxicity against human Caki1 cells by SRB assay; type: functional
SF-295 = assay: Cytotoxicity against human SF295 cells by SRB assay; type: functional
NSCLC = assay: Cytotoxicity against human NSCLC cells by SRB assay; type: functional
[2] = Cytotoxicity against human Hs 578T cells by SRB assay; type: functional
HCT-15 = assay: Cytotoxicity against human HCT15 cells by SRB assay; type: functional
U-251 = assay: Cytotoxicity against human U251 cells by SRB assay; type: functional
MDA-N = assay: Cytotoxicity against human MDA-N cells by SRB assay; type: functional
HOP-92 = assay: Cytotoxicity against human HOP92 cells by SRB assay; type: functional
T47D = assay: Cytotoxicity against human T47D cells by SRB assay; type: functional
OVCAR-3 = assay: Cytotoxicity against human OVCAR-3 cells by SRB assay; type: functional
RXF 393 = assay: Cytotoxicity against human RXF393 cells by SRB assay; type: functional
Malme-3M = assay: Cytotoxicity against human MALME-3M cells by SRB assay; type: functional
[3] = Cytotoxicity against human ovarian cancer cells by SRB assay; type: functional; settings: Cancer cell lines
K562 = assay: Cytotoxicity against human K562 cells by SRB assay; type: functional
LOX IMVI = assay: Cytotoxicity against human LOXIMVI cells by SRB assay; type: functional
HOP-62 = assay: Cytotoxicity against human HOP62 cells by SRB assay; type: functional
NCI-H23 = assay: Cytotoxicity against human NCI-H23 cells by SRB assay; type: functional
NCI-H460 = assay: Cytotoxicity against human NCI-H460 cells by SRB assay; type: functional
M14 = assay: Cytotoxicity against human M14 cells by SRB assay; type: functional
[4] = Cytotoxicity against human melanoma cells by SRB assay; type: functional; settings: Melanoma cell
CCRF-CEM = assay: Cytotoxicity against human CCRF-CEM cells by SRB assay; type: functional
SK-MEL-5 = assay: Cytotoxicity against human SK-MEL-5 cells by SRB assay; type: functional
[5] = Cytotoxicity against human HL60(TB) cells by SRB assay; type: functional, HL-60(TB); settings: HL-60
UACC-62 = assay: Cytotoxicity against human UACC62 cells by SRB assay; type: functional
[6] = Cytotoxicity against human CNS cancer cells by SRB assay; type: functional; settings: Cancer cell lines
SNB-19 = assay: Cytotoxicity against human SNB19 cells by SRB assay; type: functional
[7] = Cytotoxicity against human renal cancer cells by SRB assay; type: functional; settings: Cancer cell lines
SNB-75 = assay: Cytotoxicity against human SNB75 cells by SRB assay; type: functional
[8] = Cytotoxicity against human breast cancer cells by SRB assay; type: functional; settings: Cancer cell lines
SF-268 = assay: Cytotoxicity against human SF268 cells by SRB assay; type: functional
OVCAR-4 = assay: Cytotoxicity against human OVCAR4 cells by SRB assay; type: functional
SK-OV-3 = assay: Cytotoxicity against human SKOV3 cells by SRB assay; type: functional
[9] = Cytotoxicity against human prostate cancer cells by SRB assay; type: functional; settings: Cancer cell lines
NCI-H522 = assay: Cytotoxicity against human NCI-H522 cells by SRB assay; type: functional
PC-3 = assay: Cytotoxicity against human PC3 cells by SRB assay; type: functional
DU-145 = assay: Cytotoxicity against human DU145 cells by SRB assay; type: functional
EKVX = assay: Cytotoxicity against human EKVX cells by SRB assay; type: functional
COLO 205 = assay: Cytotoxicity against human COLO205 cells by SRB assay; type: functional
MCF7 = assay: Cytotoxicity against human MCF7 cells by SRB assay; type: functional
[10] = Cytotoxicity against human MCF7/ADR cells by SRB assay; type: functional; settings: NCI/ADR-RES
KM12 = assay: Cytotoxicity against human KM12 cells by SRB assay; type: functional
SW-620 = assay: Cytotoxicity against human SW620 cells by SRB assay; type: functional
UO-31 = assay: Cytotoxicity against human UO31 cells by SRB assay; type: functional
[11] = Cytotoxicity against human Colon cancer cells by SRB assay; type: functional; settings: Cancer cell lines
HCT-116 = assay: Cytotoxicity against human HCT116 cells by SRB assay; type: functional
UACC-257 = assay: Cytotoxicity against human UACC257 cells by SRB assay; type: functional
HT-29 = assay: Cytotoxicity against human HT29 cells by SRB assay; type: functional
MDA-MB-231 = assay: Cytotoxicity against human MDA-MB-231 cells by SRB assay; type: functional
OVCAR-5 = assay: Cytotoxicity against human OVCAR5 cells by SRB assay; type: functional
ACHN = assay: Cytotoxicity against human ACHN cells by SRB assay; type: functional
NCI-H322M = assay: Cytotoxicity against human NCI-H322M cells by SRB assay; type: functional

C=C1[C@@H](O)C[C@@]23CC[C@@H]4[C@@]5(C)CC[C@@H](OC(C)=O)C(C)(C)[C@@H]5C[C@@H](O[C@@H]5O[C@H](COC(C)=O)[C@@H](O)[C@H](O)[C@H]5O)[C@@]4(C)C2=CC[C@H]3[C@H]1C
GI50 (MOLT-4): 1.95 µM | GI50 (OVCAR-8): 6.61 µM | GI50 (SR): 2.34 µM | GI50 (A549): 4.79 µM | GI50 (NCI-H226): 6.03 µM | GI50 (BT-549): 11.5 µM | GI50 (SK-MEL-2): 2.09 µM | GI50 (SK-MEL-28): 8.32 µM | GI50 [1]: 5.25 µM | GI50 (MDA-MB-435): 4.79 µM | GI50 (A498): 14.8 µM | GI50 (SN12C): 6.03 µM | TGI (Leukemia cell): 8.7 µM | GI50 (HCC 2998): 1.58 µM | TGI (HCC 2998): 3.5 µM | GI50 (RPMI-8226): 2.95 µM | GI50 (IGROV-1): 4.79 µM | GI50 (CAKI-1): 13.2 µM | GI50 (SF-295): 4.17 µM | TGI (NSCLC): 23.4 µM | GI50 [2]: 4.9 µM | GI50 (HCT-15): 11.5 µM | TGI (HCT-15): 27.5 µM | GI50 (U-251): 2.82 µM | GI50 (MDA-N): 5.13 µM | GI50 (HOP-92): 10.7 µM | GI50 (T47D): 7.24 µM | GI50 (OVCAR-3): 2.82 µM | GI50 (RXF 393): 3.98 µM | GI50 (Malme-3M): 11.5 µM | TGI [3]: 17.6 µM | GI50 (K562): 3.09 µM | GI50 (LOX IMVI): 3.98 µM | GI50 (HOP-62): 12.9 µM | GI50 (NCI-H23): 9.55 µM | GI50 (NCI-H460): 4.27 µM | GI50 (M14): 3.55 µM | TGI [4]: 19.1 µM | GI50 (CCRF-CEM): 2.57 µM | GI50 (SK-MEL-5): 6.03 µM | GI50 [5]: 2.75 µM | GI50 (UACC-62): 7.08 µM | TGI [6]: 16.9 µM | GI50 (SNB-19): 5.5 µM | TGI [7]: 22.1 µM | GI50 (SNB-75): 2.19 µM | TGI [8]: 21.5 µM | GI50 (SF-268): 6.61 µM | GI50 (OVCAR-4): 3.98 µM | GI50 (SK-OV-3): 11.7 µM | TGI [9]: 18.3 µM | GI50 (NCI-H522): 7.41 µM | GI50 (PC-3): 3.47 µM | GI50 (DU-145): 10.7 µM | GI50 (EKVX): 10 µM | GI50 (COLO 205): 1.78 µM | TGI (COLO 205): 3.3 µM | GI50 (MCF7): 1.51 µM | GI50 [10]: 17.8 µM | GI50 (KM12): 1.55 µM | TGI (KM12): 4.8 µM | GI50 (SW-620): 7.24 µM | TGI (SW-620): 24.2 µM | GI50 (UO-31): 13.8 µM | TGI [11]: 11.3 µM | GI50 (HCT-116): 3.47 µM | TGI (HCT-116): 9.8 µM | GI50 (UACC-257): 10.2 µM | GI50 (HT-29): 2.34 µM | TGI (HT-29): 5.9 µM | GI50 (MDA-MB-231): 7.76 µM | GI50 (OVCAR-5): 2.09 µM | GI50 (ACHN): 7.08 µM | GI50 (NCI-H322M): 12.9 µM

— ChEMBL document CHEMBL1158870, “Antitumor agents. 180. Chemical Studies and cytotoxic evaluation of cumingianosides and cumindysoside A, antileukemic triterpene glucosides with a 14,18-cycloapotirucallane skeleton” (1997)
